This data set can be described thus: Turbidity assay for solubility of the peptides. As to conditions: solubility of the antigenic peptides in water or Dimethyl Sulfoxide (DMSO). The class given is physicochemical. The protocol: A number of antigenic peptides of the invention were synthesized by chemical synthesis as described in Section 5.1.1.
A turbidity assay was used to assess the solubility of the peptides. Turbidity assays used either a Varian Cary double-beam spectrophotometer, or a Molecular Devices Spectromax absorbance plate reader (for high throughput experiments). The spectrophotometer assay read every 2 nm between 340 nm and 360 nm, and averaged the values. Samples were analyzed in duplicate using a quartz micro-cuvette that holds about 200 uL. The plate reader assay used a 96-well plate format that read every 4 nm between 340 nm and 360 nm and averaged those values. Samples in this assay were run in triplicate.
Regarding `CC(C)C[C@H](NC(=O)[C@H](C)NC(=O)[C@H](CCCNC(=N)N)NC(=O)[C@@H](NC(=O)[C@@H](NC(=O)[C@H](Cc1c[nH]cn1)NC(=O)CNC(=O)CNC(=O)[C@H](CC(C)C)NC(=O)[C@H](CO)NC(=O)[C@H](CC(C)C)NC(=O)[C@H](CO)NC(=O)[C@H](CCCNC(=N)N)NC(=O)[C@@H]1CCCN1C(=O)[C@H](C)NC(=O)[C@@H](NC(=O)[C@H](CCCNC(=N)N)NC(=O)[C@@H]1CCCN1C(=O)[C@H](CC(N)=O)NC(=O)CN)[C@@H](C)O)[C@@H](C)O)C(C)C)C(=O)N[C@@H](CO)C(=O)N1CCC[C@H]1C(=O)N[C@H](C(=O)N1CCC[C@H]1C(=O)N1CCC[C@H]1C(=O)N[C@@H](Cc1c[nH]c2ccccc12)C(=O)N1CCC[C@H]1C(=O)NCC(=O)N[C@H](C(=O)N[C@@H](CC(=O)O)C(=O)N[C@@H](CC(=O)O)C(=O)N[C@@H](CCC(=O)O)C(=O)N[C@@H](CC(=O)O)C(=O)N[C@@H](CC(=O)O)C(=O)N[C@@H](CC(=O)O)C(=O)O)[C@@H](C)O)[C@@H](C)O` [RL02-1], the Solubility entry is given as “water”.

For `CC[C@H](C)[C@H](NC(=O)[C@@H]1CCCN1C(=O)[C@H](CC(C)C)NC(=O)[C@H](Cc1ccc(O)cc1)NC(=O)[C@@H](N)CCCNC(=N)N)C(=O)N[C@@H](C)C(=O)NCC(=O)N[C@H](C(=O)N[C@@H](CO)C(=O)N[C@@H](CO)C(=O)N[C@H](C(=O)N[C@H](C(=O)N[C@@H](C)C(=O)N[C@@H](CC(C)C)C(=O)N[C@@H](C)C(=O)N1CCC[C@H]1C(=O)N[C@@H](Cc1ccc(O)cc1)C(=O)N[C@H](C(=O)N[C@@H](CC(N)=O)C(=O)N[C@@H](CCCCN)C(=O)N[C@H](C(=O)N[C@H](C(=O)N[C@H](C(=O)NCC(=O)N[C@@H](CC(=O)O)C(=O)N[C@@H](CS)C(=O)N[C@@H](CC(C)C)C(=O)N1CCC[C@H]1C(=O)N[C@H](C(=O)N[C@@H](CC(C)C)C(=O)N[C@@H](CC(=O)O)C(=O)N[C@@H](CCSC)C(=O)N[C@@H](CCC(=O)O)C(=O)N[C@H](C(=O)NCC(=O)O)[C@@H](C)O)C(C)C)[C@@H](C)O)C(C)C)[C@@H](C)O)C(C)C)C(C)C)C(C)C)C(C)C` [RL02-2], the Solubility result is “DMSO”.

Consider `CSCC[C@H](NC(=O)[C@H](C)N)C(=O)N[C@@H](CO)C(=O)N[C@@H](CCCNC(=N)N)C(=O)N[C@@H](CCCNC(=N)N)C(=O)N[C@@H](Cc1ccc(O)cc1)C(=O)N[C@@H](CC(=O)O)C(=O)N[C@@H](CCCNC(=N)N)C(=O)N[C@@H](C)C(=O)N[C@@H](CCC(N)=O)C(=O)N[C@@H](CCCCN)C(=O)NCC(=O)N[C@@H](Cc1ccccc1)C(=O)N[C@@H](CC(C)C)C(=O)N[C@@H](CC(C)C)C(=O)N[C@H](C(=O)N[C@@H](CO)C(=O)N[C@@H](CC(C)C)C(=O)N[C@@H](CCCNC(=N)N)C(=O)N[C@@H](CCCNC(=N)N)C(=O)N[C@@H](C)C(=O)N[C@@H](Cc1ccc(O)cc1)C(=O)N[C@@H](C)C(=O)N1CCC[C@H]1C(=O)N[C@@H](CC(C)C)C(=O)N[C@@H](CC(C)C)C(=O)N[C@@H](C)C(=O)N[C@@H](CCCNC(=N)N)C(=O)N[C@@H](CCC(=O)O)C(=O)N[C@@H](CC(N)=O)C(=O)N[C@@H](C)C(=O)N[C@@H](C)C(=O)N[C@@H](CC(C)C)C(=O)N[C@H](C(=O)NCC(=O)O)[C@@H](C)O)[C@@H](C)O` [RS01-2], for which the Solubility result is listed as “water”.

For the origin of these results see patent US8541002B2, “Vaccine for treatment and prevention of herpes simplex virus infection” (Agenus Inc., priority 2003, dated 2013).
